Source: patent US20260209234A1, “SUBSTITUTED DIHYDROPYRROLO[3,4-D]PYRIMIDINE COMPOUNDS AND THEIR USE IN TREATING MEDICAL CONDITIONS” (Karuna Therapeutics, Inc., priority 2022, published 2026)

Legend:
hM4 receptors = target: T1, hM4 receptors (Homo sapiens, UniProt P08173); test: Human M4 PAM pERK assay; type: cell-based; conditions: CHO cells expressing hM4; EC20 of acetylcholine (10 nM final); TR-FRET
T1 construct: expressed in transfected cells; host or cells: CHO cells
T1 sequence (P08173 1-479): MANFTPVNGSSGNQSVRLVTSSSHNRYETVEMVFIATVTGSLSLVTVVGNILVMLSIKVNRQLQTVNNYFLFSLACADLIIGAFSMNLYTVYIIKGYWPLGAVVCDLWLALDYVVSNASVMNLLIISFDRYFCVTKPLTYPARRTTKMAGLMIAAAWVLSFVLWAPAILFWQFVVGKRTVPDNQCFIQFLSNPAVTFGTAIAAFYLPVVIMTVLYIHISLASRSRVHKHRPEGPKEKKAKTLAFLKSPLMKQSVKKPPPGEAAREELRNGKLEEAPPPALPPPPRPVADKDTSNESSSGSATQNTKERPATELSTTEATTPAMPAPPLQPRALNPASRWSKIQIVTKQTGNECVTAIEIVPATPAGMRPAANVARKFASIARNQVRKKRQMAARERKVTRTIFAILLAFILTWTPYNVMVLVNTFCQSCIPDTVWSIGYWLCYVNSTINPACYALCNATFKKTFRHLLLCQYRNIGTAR
Experimental: (§1) Chinese hamster ovary (CHO) cells expressing either hM4 or rM4 receptors were frozen in assay ready vials (5×10^6 cells/vial) after bulking-up in culture. The day before an assay, vial(s) were thawed and cells seeded in 384 well white proxiplates at 1000/well for hM4 cells and at 2000/well for rM4 cells, in 10 μL of growth media (Hams/F12 with glutamax and 10% FCS) and incubated overnight at 37° C./5% CO2.
(§2) On the following morning, the growth media was removed by ‘flicking out’ over a bin, patting the inverted plate onto tissue, and then replacing with 10 μL of wash media (Hams/F12 with glutamax and 8 mM HEPES, NB: serum free). Then, the wash media was removed in the same way and replaced with 8 μL/well of the serum free media. Plates were then re-incubated for a further 4 hours at 37° C./5% CO2.
(§3) Compounds for testing were solubilized to 10 mM in DMSO and compound addition plates, consisting of ten-point concentration response curves (CRC) in duplicate points (10 μM top concentration, 1/2 log dilution series), were prepared by acoustic dispensing and the compound management group.
(§4) After the 4-hour incubation in serum free media, a 4 μL aliquot of the 3× compound solution containing an EC20 of acetylcholine (10 nM final concentration) was added to the cell plate using a 384 well plate to plate transfer. Then, the plate lid was replaced, and the cells incubated for 5 mins at 37° C./5% CO2. Following this final incubation, all cellular processes were stopped by the addition of 4 μL/well of lysis and blocking buffer and plates were incubated for 30 minutes at RT on an orbital shaker (gentle setting). Then, a final addition of 4 μL/well of antibody detection mix, containing both the Europium-Cryptate (donor) and d2 (acceptor) tagged detection components, was added followed by a further 2-hour incubation at RT, and then the plate was read using a TR-FRET (time resolved fluorescence resonance energy transfer) based protocol.

rM4 receptors = target: T2, rM4 receptors (Rattus norvegicus, UniProt P08485); test: Rat M4 PAM pERK assay; type: cell-based; conditions: CHO cells expressing rM4; EC20 of acetylcholine (10 nM final); TR-FRET
T2 construct: expressed in transfected cells; host or cells: CHO cells
T2 sequence (P08485 1-478): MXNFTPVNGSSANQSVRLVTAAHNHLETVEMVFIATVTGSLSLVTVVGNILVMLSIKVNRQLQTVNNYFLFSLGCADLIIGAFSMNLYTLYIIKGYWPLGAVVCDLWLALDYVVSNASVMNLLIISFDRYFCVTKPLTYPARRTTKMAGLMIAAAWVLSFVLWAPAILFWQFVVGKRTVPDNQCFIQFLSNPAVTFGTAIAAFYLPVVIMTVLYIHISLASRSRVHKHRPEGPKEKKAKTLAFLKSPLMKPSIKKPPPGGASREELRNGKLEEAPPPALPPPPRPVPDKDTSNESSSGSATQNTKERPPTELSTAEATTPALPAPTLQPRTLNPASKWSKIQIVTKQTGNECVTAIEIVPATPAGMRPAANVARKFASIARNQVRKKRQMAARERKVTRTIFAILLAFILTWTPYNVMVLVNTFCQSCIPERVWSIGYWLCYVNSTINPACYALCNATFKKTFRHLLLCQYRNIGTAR
Experimental: as §1, §2, §3, §4

human M4 receptor = target: T3, human M4 receptor (Homo sapiens, UniProt P08173); test: M4 GTPγS PAM assay; type: biochemical; conditions: membranes of CHO-K1 cells stably expressing human M4; EC20 acetylcholine 40 nM; 35S-GTP
T3 construct: expressed in transfected cells
T3 sequence (P08173 1-479): T1 sequence (P08173 1-479)
Experimental: The M4 GTPγS PAM method was used. Membranes were prepared for GTPgS binding assays from CHO-K1 cells stably expressing human M4 receptor. Briefly, cells were grown in 5-layer cell culture flasks. Cells were washed with 50 mL of PBS and then dissociated with 0.05% trypsin. Dissociated cells were then collected by centrifugation at 650×g for 8 minutes at 4° C. Pellets were washed again in PBS by centrifugation and resuspended in 30 mL of 20 mM HEPES, 10 mM EDTA, pH 7.4. After sitting on ice for 30 min, membranes were collected by centrifugation at 50000×g for 15′ at 4° C., resuspended in 30 mL of 20 mM HEPES, 0.1 mM EDTA, pH 7.4 and collected again by centrifugation. Pellets were then washed twice by centrifugation in 30 mL of 20 mM HEPES, pH 7.4, and stored at −80° C. until the day of the assay. On the day of the assay, pellets were thawed on ice and resuspended in 1 mL of 20 mM HEPES, pH 7.4, 10 mM MgCl2, 100 mM NaCl using dounce homogenization. Membrane protein concentration is determined by BCA protein assay (Promega, Madison, WI) according to Promega guidelines.
On the day of the assay, serial dilutions of test PAM compounds were brought up in assay buffer (20 mM HEPES, 10 mM MgCl2, 100 mM NaCl) at 4× final assay concentration. […] of membrane homogenates (containing […] of membrane protein) were prepared in assay buffer supplemented with GDP at 4× final assay concentration (final assay concentration of GDP is 5 μM for M2 and 0.1 μM for M4) and dispensed into 96 well polypropylene, U-bottom Greiner plates. […] of vehicle or test PAM compound at 4× of final assay concentration diluted in the assay buffer were added to membrane and plates are incubated for 10-15 minutes at room temperature with gentle shaking. Then, […] of EC20 acetylcholine in assay buffer at 4× final assay concentration was added to assay plates (EC20 final assay concentrations was 40 nM for human M4).
Plates were then incubated, with shaking, for an additional 10-15 minutes. […] of 0.4 nM 35S-GTP (Perkin Elmer, Waltham, MA) in assay buffer was added to assay mixtures. The binding reaction is left on the shaker for 1 hour at room temperature. Membranes in assay reactions were then transferred to GF/C filter plates (Unifilter, Perkin Elmer) and washed three times using a FilterMate Harvester (Perkin Elmer) with cold assay buffer containing no GDP. Filter plates were then dried at 40° C. overnight followed by the addition of […] of Beta Plate Scintillation liquid. Plates are top and bottom sealed before being read on TopCount scintillation counter (Perkin Elmer, Waltham, MA).

Which EC50 (hM4 receptors) does the source give for COc1nc(C#N)nc2c1C(C)N(C(=O)CC1CN(c3ccc(C#N)cc3)C1)C2 (single isomer, unassigned) [Compound I-23, 6-(2-(1-(4-Cyanophenyl)azetidin-3-yl)acetyl)-4-methoxy-5-methyl-6,7-dihydro-5H-pyrrolo[3,4-d]pyrimidine-2-carbonitrile] here?
The EC50 was at most 0.1 µM.

And the EC50 (rM4 receptors)?
Its EC50 is 0.1 to 0.5 µM.

And the EC50 (human M4 receptor)?
The EC50 was at most 0.1 µM.

COc1nc2c(c(OC)n1)C(C)N(C(=O)CC1CN(c3ccc(C#N)cc3)C1)C2 (single isomer, unassigned) [Compound I-66, 4-(3-(2-(2,4-dimethoxy-5-methyl-5,7-dihydro-6H-pyrrolo[3,4-d]pyrimidin-6-yl)-2-oxoethyl)azetidin-1-yl)benzonitrile] was tested. Which EC50 (hM4 receptors) did it give?
Its EC50 is at most 0.1 µM.

What about the EC50 (rM4 receptors) of the same compound?
Its EC50 is 0.1 to 0.5 µM.

What about the EC50 (human M4 receptor) of the same compound?
The EC50 was 0.5 to 2 µM.

How did the EC50 (hM4 receptors) turn out when COc1nc(C#N)nc2c1C(C)N(C(=O)CC1CN(c3cccnc3)C1)C2 (single isomer, unassigned) [Compound I-8, 4-Methoxy-5-methyl-6-(2-(1-(pyridin-3-yl)azetidin-3-yl)acetyl)-6,7-dihydro-5H-pyrrolo[3,4-d]pyrimidine-2-carbonitrile] was run?
Its EC50 is at most 0.1 µM.

And the EC50 (rM4 receptors)?
Its EC50 is 0.1 to 0.5 µM.

And the EC50 (human M4 receptor)?
Its EC50 is 0.5 to 2 µM.

What does the source list for COc1nc(C#N)nc2c1C(C)N(C(=O)CC1CN(c3ccnc(C(C)(C)O)c3)C1)C2 (single isomer, unassigned) [Compound I-30, 6-(2-(1-(2-(2-Hydroxypropan-2-yl)pyridin-4-yl)azetidin-3-yl)acetyl)-4-methoxy-5-methyl-6,7-dihydro-5H-pyrrolo[3,4-d]pyrimidine-2-carbonitrile]?
EC50 (hM4 receptors): ≤ 0.1 µM; EC50 (rM4 receptors): 0.1 to 0.5 µM; EC50 (human M4 receptor): 0.1 to 0.5 µM

For COc1nc(C)nc2c1C(C)N(C(=O)CC1CN(c3cccc(C#N)c3)C1)C2 (single isomer, unassigned) [Compound I-54, 3-(3-(2-(4-Methoxy-2,5-dimethyl-5,7-dihydro-6H-pyrrolo[3,4-d]pyrimidin-6-yl)-2-oxoethyl)azetidin-1-yl)benzonitrile], which EC50 (hM4 receptors) is on record?
Its EC50 is at least 2 µM.

What about the EC50 (rM4 receptors) of the same compound?
Its EC50 is at least 2 µM.

What about the EC50 (human M4 receptor) of the same compound?
The EC50 was at least 2 µM.

Which results are given for COc1nc(C#N)nc2c1C(C)N(C(=O)CC1CN(c3ccnc(OC4CC4)c3)C1)C2 (single isomer, unassigned) [Compound I-14, 6-(2-(1-(2-Cyclopropoxypyridin-4-yl)azetidin-3-yl)acetyl)-4-methoxy-5-methyl-6,7-dihydro-5H-pyrrolo[3,4-d]pyrimidine-2-carbonitrile]?
EC50 (hM4 receptors): ≤ 0.1 µM; EC50 (rM4 receptors): 0.5 to 2 µM; EC50 (human M4 receptor): ≤ 0.1 µM

With COc1nc(C#N)nc2c1C(C)N(C(=O)CC1CN(c3ccc(C4CC4)c(F)c3)C1)C2 (single isomer, unassigned) [Compound I-22, 6-(2-(1-(4-Cyclopropyl-3-fluorophenyl)azetidin-3-yl)acetyl)-4-methoxy-5-methyl-6,7-dihydro-5H-pyrrolo[3,4-d]pyrimidine-2-carbonitrile] as the compound, how does the EC50 (hM4 receptors) read?
The EC50 was 0.1 to 0.5 µM.

And the EC50 (rM4 receptors)?
Its EC50 is 0.1 to 0.5 µM.

And the EC50 (human M4 receptor)?
Its EC50 is 0.1 to 0.5 µM.

What does the source list for COc1nc(C#N)nc2c1C(C)N(C(=O)CC1CN(c3cccnc3)C1)C2 (single isomer, unassigned) [Compound I-7, 4-Methoxy-5-methyl-6-(2-(1-(pyridin-3-yl)azetidin-3-yl)acetyl)-6,7-dihydro-5H-pyrrolo[3,4-d]pyrimidine-2-carbonitrile]?
EC50 (hM4 receptors): ≥ 2 µM; EC50 (rM4 receptors): ≥ 2 µM; EC50 (human M4 receptor): ≥ 2 µM

What does the source list for Cc1nc2c(c(OC3CC3)n1)CN(C(=O)CC1CN(c3cccnc3)C1)C2 [Compound I-48, 1-(4-Cyclopropoxy-2-methyl-5,7-dihydro-6H-pyrrolo[3,4-d]pyrimidin-6-yl)-2-(1-(pyridin-3-yl)azetidin-3-yl)ethan-1-one]?
EC50 (hM4 receptors): 0.5 to 2 µM; EC50 (rM4 receptors): ≥ 2 µM; EC50 (human M4 receptor): ≥ 2 µM

How did the EC50 (hM4 receptors) turn out when COc1nc(C#N)nc2c1C(C)N(C(=O)CC1CN(c3ncns3)C1)C2 (single isomer, unassigned) [Compound I-4, 6-(2-(1-(1,2,4-Thiadiazol-5-yl)azetidin-3-yl)acetyl)-4-methoxy-5-methyl-6,7-dihydro-5H-pyrrolo[3,4-d]pyrimidine-2-carbonitrile] was run?
The EC50 was at least 2 µM.

And the EC50 (rM4 receptors)?
The EC50 was at least 2 µM.

And the EC50 (human M4 receptor)?
Its EC50 is at least 2 µM.

For COc1nc(C#N)nc2c1C(C)N(C(=O)CC1CN(c3ccncc3F)C1)C2 (single isomer, unassigned) [Compound I-29, 6-(2-(1-(3-Fluoropyridin-4-yl)azetidin-3-yl)acetyl)-4-methoxy-5-methyl-6,7-dihydro-5H-pyrrolo[3,4-d]pyrimidine-2-carbonitrile], which EC50 (hM4 receptors) is on record?
Its EC50 is 0.1 to 0.5 µM.

And the EC50 (rM4 receptors)?
Its EC50 is 0.5 to 2 µM.

And the EC50 (human M4 receptor)?
Its EC50 is 0.1 to 0.5 µM.

What does the source list for Cc1nc2c(c(OC3CC3)n1)CN(C(=O)CC1CN(c3ccnc(C(F)(F)F)c3)C1)C2 [Compound I-49, 1-(4-Cyclopropoxy-2-methyl-5,7-dihydro-6H-pyrrolo[3,4-d]pyrimidin-6-yl)-2-(1-(2-(trifluoromethyl)pyridin-4-yl)azetidin-3-yl)ethan-1-one]?
EC50 (hM4 receptors): ≥ 2 µM; EC50 (human M4 receptor): ≥ 2 µM

With COc1nc(C)nc2c1CN(C(=O)CC1(F)CN(c3ccnc(C(F)(F)F)c3)C1)C2 [Compound I-42, 2-(3-Fluoro-1-(2-(trifluoromethyl)pyridin-4-yl)azetidin-3-yl)-1-(4-methoxy-2-methyl-5,7-dihydro-6H-pyrrolo[3,4-d]pyrimidin-6-yl)ethan-1-one] as the compound, how does the EC50 (hM4 receptors) read?
The EC50 was at least 2 µM.

And the EC50 (human M4 receptor)?
Its EC50 is at least 2 µM.
